# According to patent US8507472B2 (priority 2010, dated 2013):
# Where two headings read alike, the source gives them in different places.
# Legend:
# Alternaria solani = assay: Alternaria test (tomato)/protective; type: in vivo
# Description: (§1) Solvent: 49 parts by weight of N,N-dimethylformamide
# (§2) Emulsifier: 1 part by weight of alkylaryl polyglycol ether
# To produce a suitable preparation of active compound, 1 part by weight of active compound is mixed with the stated amounts of solvent and emulsifier, and the concentrate is diluted with water to the desired concentration.
# To test for protective activity, young tomato plants are sprayed with the active compound preparation at the stated application rate. 1 day after the treatment, the plants are inoculated with a spore suspension of Alternaria solani and then remain at 100% rel. humidity and 22° C. for 24 h. The plants then remain at 96% rel. atmospheric humidity and a temperature of 20° C.
# (§3) Evaluation is carried out 7 days after the inoculation. 0% means an efficacy which corresponds to that of the control, whereas an efficacy of 100% means that no infection is observed.
# Botrytis cinerea = assay: Botrytis test (bean)/protective; type: in vivo; details: 100 ppm active compound, protective, evaluation 2 days after inoculation
# Description: Solvents: 24.5 parts by weight of acetone
# • 24.5 parts by weight of dimethylacetamide Emulsifier: 1 part by weight of alkylaryl polyglycol ether
# (§4) To produce a suitable preparation of active compound, 1 part by weight of active compound is mixed with the stated amounts of solvents and emulsifier, and the concentrate is diluted with water to the desired concentration.
# To test for protective activity, young plants are sprayed with the active compound preparation at the stated application rate. After the spray coating has dried on, 2 small pieces of agar colonized by Botrytis cinerea are placed onto each leaf. The inoculated plants are placed in a dark chamber at about 20° C. and 100% relative atmospheric humidity.
# 2 days after the inoculation, the size of the infected areas on the leaves is evaluated. 0% means an efficacy which corresponds to that of the control, whereas an efficacy of 100% means that no infection is observed.
# Phytophthora infestans = type: in vivo
# Pyrenophora teres = Pyrenophora teres test (barley)/protective; type: in vivo
# In short: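 Efficacy, read 7-9 days after spore inoculation, runs from 0% (equal to untreated control) to 100% (no infection). Barley sprayed with water-diluted DMF/emulsifier formulation was inoculated one day later, incubated 48 h at 22° C. and 100% rel. humidity, then held at 20° C. and 80% humidity.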
# Venturia inaequalis = assay: Venturia test (apple)/protective; type: in vivo; details: 100 ppm active compound, protective, evaluation 10 days after inoculation
# Description: Solvents: 24.5 parts by weight of acetone • 24.5 parts by weight of dimethylacetamide Emulsifier: 1 part by weight of alkylaryl polyglycol ether
# as §4
# To test for protective activity, young plants are sprayed with the active compound preparation at the stated application rate. After the spray coating has dried on, the plants are inoculated with an aqueous conidia suspension of the apple scab pathogen Venturia inaequalis and then remain in an incubation cabin at about 20° C. and 100% relative atmospheric humidity for 1 day.
# The plants are then placed in a greenhouse at about 21° C. and a relative atmospheric humidity of about 90%.
# Evaluation is carried out 10 days after the inoculation. 0% means an efficacy which corresponds to that of the control, whereas an efficacy of 100% means that no infection is observed.
# DON/AcDON production = assay: microbe, parasite or virus in culture; type: cell-based, Fusarium graminearum; details: 7 days at 28° C.
# Fusarium graminearum = assay: microbe, parasite or virus in culture; type: cell-based
# Leptosphaeria nodorum = Leptosphaeria nodorum test (wheat)/protective; type: in vivo
# Description: as §1, §2
# (§5) To produce a suitable preparation of active compounds, 1 part by weight of active compound is mixed with the stated amounts of solvent and emulsifier, and the concentrate is diluted with water to the desired concentration.
# To test for protective activity, young wheat plants are sprayed with the active compound preparation at the stated application rate. 1 day after the treatment, the plants are inoculated with an aqueous spore suspension of Leptosphaeria nodorum and then remain at 100% rel. atmospheric humidity and 22° C. for 48 h. The plants are then placed in a greenhouse at 90% rel. atmospheric humidity and a temperature of 22° C.
# Evaluation is carried out 7-9 days after the inoculation. 0% means an efficacy which corresponds to that of the control, whereas an efficacy of 100% means that no infection is observed.
# Sphaerotheca fuliginea = assay: Sphaerotheca test (cucumber)/protective; type: in vivo
# Description: as §1, §2, §5
# To test for protective activity, young cucumber plants are sprayed with the active compound preparation at the stated application rate. 1 day after the treatment, the plants are inoculated with a spore suspension of Sphaerotheca fuliginea. The plants are then placed in a greenhouse at 70% rel. atmospheric humidity and a temperature of 23° C.
# as §3
# [1] = log P determination by HPLC retention times (alkan-2-one calibration)
# [2] = 500 ppm active compound, tomato, protective, evaluation 7 days after inoculation
# [3] = 500 ppm active compound, wheat, protective, evaluation 7-9 days after inoculation
# [4] = 500 ppm active compound, barley, protective, evaluation 7-9 days after inoculation
# [5] = log P(HCOOH), HCOOH, preparation examples in the text
# [6] = log P, values marked [b] in Table 1
SMILES,efficacy in % (Alternaria solani; in vivo) [%],efficacy in % (Phytophthora infestans; in vivo) [%],efficacy in % (Pyrenophora teres; in vivo) [%],% inhibition of DON/AcDON at 50 μM (DON/AcDON production) [%],% inhibition of the fungal growth of Fusarium graminearum at 50 μM (Fusarium graminearum) [%],efficacy in % (Leptosphaeria nodorum; in vivo) [%],also measured
CC(C)Nc1cc(-c2c(-c3ccc(F)cc3)nn3c2CCC3)ccn1 [Example 52],90,95,80,99,19,–,efficacy in % (Botrytis cinerea): 78%; efficacy in % (Venturia inaequalis): 94%
CC1CCc2c(-c3ccncc3)c(-c3ccc(F)cc3)nn21 (centres unmarked) [Example 74],95,90,100,–,–,88,efficacy in % (Botrytis cinerea): 100%; efficacy in % (Sphaerotheca fuliginea; in vivo): 93%; efficacy in % (Venturia inaequalis): 95%
COCC(=O)Nc1cc(-c2c(-c3ccsc3)nn3c2CCCC3)ccn1 [Example 60],–,–,90,100,100,78,efficacy in % (Sphaerotheca fuliginea; in vivo): 90%
c1ccc(-c2nn3c(c2-c2ccncc2)CCC3)cc1 [Example 10],70,70,80,100,87,80,efficacy in % (Sphaerotheca fuliginea; in vivo): 94%
C[C@@H](O)C(=O)Nc1cc(-c2c(-c3ccsc3)nn3c2CCCC3)ccn1 [Example 66],70,80,95,98,50,–,–
CC(C)Nc1cc(-c2c(-c3cccc(F)c3)nn3c2CCC3)ccn1 [Example 56],–,80,–,92,27,–,–
c1cc(-c2c(-c3ccsc3)nn3c2CCC3)ccn1 [Example 46],70,70,70,100,52,–,–
Cc1cc(-c2c(-c3ccc(F)cc3)nn3c2CCCC3)ccn1 [Example 6],95,–,70,99,70,70,log P ([1]; values marked [a] in Table 1): 1.22^[a];; log P ([1]; values marked [b] in Table 1): 2.67^[b]
"Nc1cc(-c2c(-c3ccc(F)cc3)nn3c2CCCC3)ccn1 [Example 3, 4-[2-(4-Fluorophenyl)-4,5,6,7-tetrahydropyrazolo[1,5-a]pyridin-3-yl]pyridine-2-amine]",–,–,–,–,–,–,"efficacy in % (Alternaria solani; [2]): 95%; efficacy in % (Leptosphaeria nodorum; [3]): 89%; efficacy in % (Phytophthora infestans; [2]): 90%; efficacy in % (Pyrenophora teres; [4]): 95%; inhibition at 50 µM (DON/AcDON production; Fusarium graminearum, 168 h): 94%; inhibition at 50 µM (Fusarium graminearum; Fusarium graminearum, 72 h, read-out: % inhibition of the fungal growth of Fusarium graminearum at 50 μM): 30%; chromatographic logP [1, 5]: 1.21; chromatographic logP ([1]; log P, values marked [a] in Table 1): 1.21; chromatographic logP [1, 6]: 2.05"
Fc1cccc(-c2nn3c(c2-c2ccncc2)CCC3)c1 [Example 44],80,70,90,100,61,–,–
Fc1ccc(-c2nn3c(c2-c2ccnc(F)c2)CCC3)cc1 [Example 45],95,90,95,100,21,–,–
"CC(C)Nc1cc(-c2c(-c3ccccc3)nn3c2CCC3)ccn1 [Example 70, 4-[2-(Phenyl)-5,6-dihydro-4H-pyrrolo[1,2-b]pyrazol-3-yl]-N-isopropylpyridine-2-amine]",–,–,–,–,–,–,"efficacy in % (Alternaria solani; [2]): 90%; efficacy in % (Leptosphaeria nodorum; [3]): 90%; efficacy in % (Phytophthora infestans; [2]): 95%; efficacy in % (Pyrenophora teres; [4]): 80%; efficacy in % (Sphaerotheca fuliginea; 500 ppm active compound, cucumber, protective, evaluation 7 days after inoculation): 94%; efficacy in % (Venturia inaequalis): 100%; chromatographic logP [1, 5]: 1.21; chromatographic logP [1, 6]: 2.69"
c1csc(-c2nn3c(c2-c2ccncc2)CCCC3)c1 [Example 62],94,80,95,100,35,78,–
Cc1ccc(-c2nn3c(c2-c2ccncc2)CCC3)cc1 [Example 41],70,70,95,98,100,–,–
Nc1cc(-c2c(-c3ccccc3)nn3c2CCCC3)ccn1 [Example 14],–,70,–,93,24,–,–
O=C(Cc1ccccc1)Nc1cc(-c2c(-c3ccccc3)nn3c2CCCC3)ccn1 [Example 35],94,80,78,–,–,90,efficacy in % (Botrytis cinerea): 96%; efficacy in % (Venturia inaequalis): 95%
Clc1ccc(-c2nn3c(c2-c2ccncc2)CCC3)cc1 [Example 11],–,80,70,100,92,70,efficacy in % (Sphaerotheca fuliginea; in vivo): 88%
COC(=O)Nc1cc(-c2c(-c3ccsc3)nn3c2CCCC3)ccn1 [Example 67],80,70,95,100,60,–,–
